This is an account of results in publication PMC11043318, “Quantification of biochemical PSA dynamics after radioligand therapy with [^177Lu]Lu-PSMA-I&T using a population pharmacokinetic/pharmacodynamic model” (EJNMMI Physics, 2024).

The conditions of data set [1]: cited from earlier work. From the text:
Comparison of rate constants for drug transfer between different compartments is hampered by absolute radioactivity amounts being relatively small in tumors compared to organs (due to volume differences between these compartments). […] Though differences are small, these might be caused by different treatment intervals (two-week instead of six-week interval) for most patients.

Data set [2] relates to serum prostate-specific antigen (PSA). Nature of the data set: Tumor exposure (AUC) threshold for PSA response, linear regression. Type of data set: in vivo, human. Particulars: Bayesian estimated tumor AUC of first two cycles. From the text: As an exploratory analysis, the final population PKPD model was used to assess a potential tumor exposure threshold required to achieve treatment response. The individually (Bayesian) estimated area under the curve (AUC) based on the first two treatment cycles was related to the change in PSA (%) for each patient. Since PSA is a continuous response measure and there is no defined moment to determine response, two endpoints for response were considered: nadir PSA and the last measured PSA value after the first two treatment cycles. A linear regression was performed to assess the relationship and was subsequently used to define tumor AUC thresholds required to achieve treatment response (≥ 50% decrease in PSA). Formal statistical testing was not possible, since individual (Bayesian) estimates of tumor exposure cannot be considered independent variables.

Data set [3] has the same test system. Nature of the data set: Population PKPD model of PSA dynamics after therapy. Type of data set: in vivo, human. The note with it: estimate (RSE%). From the text:
Data from patients treated in our hospital with [^177Lu]Lu-PSMA-I&T between September 2019 and January 2023 were collected for population PK model development. This retrospective data collection was approved by the Institutional Review Board of the Netherlands Cancer Institute (IRBd21288). Baseline patient characteristics were collected, such as age, body weight, height and serum creatinine clearance. In addition, individual PSA concentrations were collected and used as input for the PD model. As pre-treatment PSA value, only the last observation prior to [^177Lu]Lu-PSMA-I&T treatment (< 6 weeks) was included in the analysis, to avoid taking into account PSA changes due to other previous treatments. For the same reason, PSA observations after the last [^177Lu]Lu-PSMA-I&T administration were collected up to start of a new treatment.
A sequential modelling approach was used for PKPD model development, where an additional compartment was considered to describe PSA concentrations over time. Baseline PSA concentrations were estimated as a typical population value with an estimated IIV on this population baseline value. […] For Edrug, a linear function, an Emax function and a sigmoid Emax model were evaluated (see Eqs. 9–11, respectively).9 Edrug=kD∗Ctumor 10 Edrug=EMAX∗Ctumor/EC50+Ctumor 11 Edrug=EMAX∗Ctumorγ/EC50γ+Ctumorγ where kD is a drug-induced effect, Ctumor is the estimated concentration in the tumor compartment (taking into account radioactive decay), EMAX is the maximal drug induced effect of [^177Lu]Lu-PSMA-I&T on PSA, EC50 is the [^177Lu]Lu-PSMA-I&T concentration at which half of the maximum drug-induced effect on PSA occurs and γ is a hill coefficient (that was both estimated and fixed during model development).
Therefore, a delay of the PD effect after administration of [^177Lu]Lu-PSMA-I&T (Edelayed) was evaluated using an effect compartment with a linear drug effect (Eq. 8) on the PSA compartment. This delayed effect was assessed both solely as well as additional to the direct effect (Edrug). […]

Data set [4] can be described thus: Population pharmacokinetic model from post-administration SPECT/CT data. Type of data set: in vivo, human.
For data set [5] the following is noted: cited from earlier work. The text has this:
Though differences are small, these might be caused by different treatment intervals (two-week instead of six-week interval) for most patients.
The source holds these as a separate data set.

The mark [6] stands for this setting: fraction of tumor uptake rate in cycle 1, estimate (RSE%).
The mark [7] stands for this setting: population PK model, covariate exponent, estimate (RSE%).
Setting [8] is: population PK model, estimate (RSE%).

Several values for one entry are separate records, joined by “and”; a condition that tells them apart may be missing. Equal values may be shown once.

For `O=C(O)CC[C@H](NC(=O)N[C@@H](CCCCNC(=O)[C@H](Cc1ccc2ccccc2c1)NC(=O)[C@H]1CC[C@H](CNC(=O)CN2CCN(CC(=O)O)CCN(CC(=O)O)CCN(CC(=O)O)CC2)CC1)C(=O)O)C(=O)O` [[^177Lu]Lu-PSMA-617, metal not drawn], in data set [1], the “Initial volume of distribution” value is given as 22 L and the Reported clearance is reported as 2.04 L/h. The Excretion rate in data set [1] (population PK model) is 0.288 h⁻¹.
Regarding `O=C([O-])CC[C@H](NC(=O)N[C@@H](CCCCNC(=O)CCCCCCC(=O)NCCCC[C@@H](NC(=O)[C@@H](Cc1ccccc1)NC(=O)[C@@H](Cc1ccc(O)c(I)c1)NC(=O)CC[C@H](C(=O)[O-])N1CCN(CC(=O)[O-])CCN(CC(=O)[O-])CCN(CC(=O)[O-])CC1)C(=O)[O-])C(=O)[O-])C(=O)[O-].[177Lu+3].[H+].[H+].[H+].[H+].[H+]` [[^177Lu]Lu-PSMA-I&T], in data set [2], the “Threshold tumor AUC for ≥ 50% decrease in PSA, last measured PSA after first two cycles” value is reported as 1188 MBq·h/mL and the “Threshold tumor AUC for ≥ 50% decrease in PSA, nadir PSA as outcome” value is 709.5 MBq·h/mL. In data set [3] (first-order delay to effect compartment), the “Rate constant effect compartment (ke0)” value was 0.00128 (13.1%) h^−1. For the same molecule, in data set [3] (linear effect from effect compartment on PSA), the “Delayed drug-induced effect (kD, delay)” value was 0.0000328 (17.4%) L·day^−1·MBq^−1. Moreover, the “Direct drug-induced effect (kD, direct)” value in data set [3] (linear effect of tumor concentration on PSA elimination) is 0.00335 (40.1%) L·day^−1·GBq^−1. Besides, in data set [4] (all 76 patients), the “Tumor uptake rate in cycle 2 compared to cycle 1” value is 73% and 73.1%; the “Tumor uptake rate in cycle 3 compared to cycle 1” value is 50% and 49.8%; the “Tumor uptake rate in cycle 4–7 compared to cycle 1” value is 44% and 43.6%. In addition, in data set [4] (cycle effect tested on k12), the “Salivary gland uptake in cycle three compared to cycle one” value came out at 98.1% and the “Salivary gland uptake in cycle two compared to cycle one” value is reported as 84.6%. Besides, the “Estimated half-life, tumors” value in data set [4] (decay-corrected data) was ~46 h. In data set [4] (setting [6]), the “Cycle 2 on k14 (fractional change)” value is reported as 0.731 (8.1%), the “Cycle 3 on k14 (fractional change)” value is reported as 0.498 (11.3%) and the “Cycle 4–7 on k14 (fractional change)” value is recorded as 0.436 (11.6%). Moreover, the “Increase of tumor uptake rate with a two-times higher tumor volume” value in data set [4] (from power covariate 1.08 on k14) was found to be 2.11 fold. Further, the “Tumor uptake rate in cycle 2 compared to cycle 1, excluding '4 × 6' patients” value in data set [4] (only '2 × 2 – repeated after twelve weeks' scheme) stood at 82.9%. The “k10 (renal excretion rate constant from central compartment)” value in data set [4] (population PK model, 76 mCRPC patients, ~7.4 GBq per cycle, SPECT/CT, estimate (RSE%)) is given as 0.253 (5.2%) h^−1. For the same molecule, in data set [4] (population PK model, 76 mCRPC patients, estimate (RSE%)), the “k12 (uptake rate central to salivary glands)” value is listed as 0.0105 (9.2%) h^−1. The molecule also returned a Renal clearance in data set [4] (population PK model, mCRPC patients) of 2.61 L/h. Besides, in data set [4] (setting [7]), the “Tumor volume on k12 (power covariate function)” value is 0.0910 (30.0%) and the “Tumor volume on k14 (power covariate function)” value is on record as 1.08 (7.5%). For the same molecule, in data set [4] (setting [8]), the “k13 (uptake rate central to kidneys)” value is on record as 0.0321 (6.9%) h^−1, the “k14 (uptake rate central to tumors)” value is recorded as 0.00967 (9.9%) h^−1, the “k15 (central to remaining tissue)” value is recorded as 0.275 (6.8%) h^−1 and the “k21 (salivary glands to central)” value is 0.0629 (6.3%) h^−1. In data set [4] (setting [8]), the “k31 (kidneys to central)” value is 0.0625 (5.4%) h^−1, the “k41 (tumors to central)” value is 0.0150 (3.4%) h^−1 and the “k51 (remaining tissue to central)” value is 0.0247 (6.5%) h^−1. Further, in data set [4] (salivary glands and kidneys, decay-corrected data), the “Estimated half-life, organs-at-risk” value is on record as “approximately 11 h”. In data set [4] (saturable uptake into salivary glands, estimate (RSE%)), the “BMAX compartment 2 (maximum binding capacity, salivary glands)” value is on record as 134 (15.5%) MBq. Besides, in data set [5], the “Average tumor absorbed dose, fourth cycle relative to first cycle” value was 68%; the “Average tumor absorbed dose, second cycle relative to first cycle” value is reported as 94%; the “Average tumor absorbed dose, third cycle relative to first cycle” value is 77%. In data set [5] (n = 5–15 patients per cycle), the “Average tumor absorbed dose, first cycle” value is given as 3.5 Gy/GBq; the “Average tumor absorbed dose, fourth cycle” value is reported as 2.4 Gy/GBq; the “Average tumor absorbed dose, second cycle” value is recorded as 3.3 Gy/GBq; the “Average tumor absorbed dose, third cycle” value is 2.7 Gy/GBq.
